# Data reported in PubChem BioAssay (NCI).
#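 1) Cells in 96-well plates. 2) Compound, 48 h, 5 concentrations. 3) Linear interpolation between surrounding doses. 4) Unreached endpoint = highest concentration. Here, GI50 denotes the concentration required for 50% inhibition of growth. The concentration for full growth arrest is given as TGI.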
# Experiments:
# Experiment in all cases: NCI-60 cell line screen, 48 h
# RPMI-8226 leukemia = tested on: RPMI-8226 leukemia
# A549 NSCLC = tested on: A549 NSCLC
# SW-620 colon = tested on: SW-620 colon
# SK-MEL-5 melanoma = tested on: SK-MEL-5 melanoma
# SF-268 CNS = tested on: SF-268 CNS
# SF-295 CNS = tested on: SF-295 CNS
# BT-549 breast = tested on: BT-549 breast
# HCT-15 colon = tested on: HCT-15 colon
# KM12 colon = tested on: KM12 colon
# HCT-116 colon = tested on: HCT-116 colon
# SK-OV-3 ovarian = tested on: SK-OV-3 ovarian
# HL-60(TB) leukemia = tested on: HL-60(TB) leukemia
# HT29 colon = tested on: HT29 colon
# HCC-2998 colon = tested on: HCC-2998 colon
# PC-3 prostate = tested on: PC-3 prostate
# TK-10 renal = tested on: TK-10 renal
# NCI-H460 lung = tested on: NCI-H460 lung
# SR leukemia = tested on: SR leukemia
# U251 CNS = tested on: U251 CNS
# UO-31 renal = tested on: UO-31 renal
# OVCAR-8 ovarian = tested on: OVCAR-8 ovarian
# HOP-92 NSCLC = tested on: HOP-92 NSCLC
# SNB-19 CNS = tested on: SNB-19 CNS
# NCI/ADR-RES ovarian = tested on: NCI/ADR-RES ovarian
# IGROV1 ovarian = tested on: IGROV1 ovarian
# SNB-75 CNS = tested on: SNB-75 CNS
# HS 578T breast = tested on: HS 578T breast
# LOX IMVI melanoma = tested on: LOX IMVI melanoma
# EKVX NSCLC = tested on: EKVX NSCLC
# MOLT-4 leukemia = tested on: MOLT-4 leukemia
# OVCAR-5 ovarian = tested on: OVCAR-5 ovarian
# MCF7 breast = tested on: MCF7 breast
# CAKI-1 renal = tested on: CAKI-1 renal
# NCI-H522 lung = tested on: NCI-H522 lung
# SN12C renal = tested on: SN12C renal
# UACC-62 melanoma = tested on: UACC-62 melanoma
# SK-MEL-28 melanoma = tested on: SK-MEL-28 melanoma
# SF-539 CNS = tested on: SF-539 CNS
# T-47D breast = tested on: T-47D breast
# HOP-62 NSCLC = tested on: HOP-62 NSCLC
# NCI-H226 lung = tested on: NCI-H226 lung
# A498 renal = tested on: A498 renal
# 786-0 renal = tested on: 786-0 renal
# M14 melanoma = tested on: M14 melanoma
# UACC-257 melanoma = tested on: UACC-257 melanoma
# ACHN renal = tested on: ACHN renal
# CCRF-CEM leukemia = tested on: CCRF-CEM leukemia
# MALME-3M melanoma = tested on: MALME-3M melanoma
# COLO 205 colon = tested on: COLO 205 colon
# SK-MEL-2 melanoma = tested on: SK-MEL-2 melanoma
# DU-145 prostate = tested on: DU-145 prostate
# RXF 393 renal = tested on: RXF 393 renal
# OVCAR-4 ovarian = tested on: OVCAR-4 ovarian
# MDA-MB-435 = tested on: MDA-MB-435
# MDA-MB-231 breast = tested on: MDA-MB-231 breast
compound,measurement,setting,value
CCCCCCNC(=O)Oc1ccc(/C(=C(/C)c2ccc(OC)cc2)c2ccc(OCCN3CCCCCC3)cc2)cc1,GI50,RPMI-8226 leukemia,2.21 µM
same,TGI,RPMI-8226 leukemia,5.47 µM
same,GI50,A549 NSCLC,3.56 µM
same,TGI,A549 NSCLC,14.4 µM
same,GI50,SW-620 colon,2.01 µM
same,TGI,SW-620 colon,4.15 µM
same,GI50,SK-MEL-5 melanoma,1.69 µM
same,TGI,SK-MEL-5 melanoma,3.12 µM
same,GI50,SF-268 CNS,7.36 µM
same,TGI,SF-268 CNS,24 µM
same,GI50,SF-295 CNS,1.76 µM
same,TGI,SF-295 CNS,3.36 µM
same,GI50,BT-549 breast,2.66 µM
same,TGI,BT-549 breast,7.94 µM
same,GI50,HCT-15 colon,1.48 µM
same,TGI,HCT-15 colon,3.15 µM
same,GI50,KM12 colon,10.9 µM
same,TGI,KM12 colon,24.2 µM
same,GI50,HCT-116 colon,1.52 µM
same,TGI,HCT-116 colon,2.85 µM
same,GI50,SK-OV-3 ovarian,7.57 µM
same,TGI,SK-OV-3 ovarian,21.2 µM
same,GI50,HL-60(TB) leukemia,0.988 µM
same,TGI,HL-60(TB) leukemia,3.47 µM
same,GI50,HT29 colon,1.71 µM
same,TGI,HT29 colon,4.09 µM
same,GI50,HCC-2998 colon,2.09 µM
same,TGI,HCC-2998 colon,4.71 µM
same,GI50,PC-3 prostate,3.05 µM
same,TGI,PC-3 prostate,11.4 µM
same,GI50,TK-10 renal,17 µM
same,TGI,TK-10 renal,31.3 µM
same,GI50,NCI-H460 lung,1.9 µM
same,TGI,NCI-H460 lung,3.52 µM
same,GI50,SR leukemia,1.32 µM
same,TGI,SR leukemia,4.6 µM
same,GI50,U251 CNS,1.72 µM
same,TGI,U251 CNS,3.33 µM
same,GI50,UO-31 renal,2.14 µM
same,TGI,UO-31 renal,6.63 µM
same,GI50,OVCAR-8 ovarian,1.96 µM
same,TGI,OVCAR-8 ovarian,3.99 µM
same,GI50,HOP-92 NSCLC,2 µM
same,TGI,HOP-92 NSCLC,6.96 µM
same,GI50,SNB-19 CNS,7.29 µM
same,TGI,SNB-19 CNS,32.1 µM
same,GI50,NCI/ADR-RES ovarian,2.91 µM
same,TGI,NCI/ADR-RES ovarian,11.2 µM
same,GI50,IGROV1 ovarian,3.66 µM
same,TGI,IGROV1 ovarian,13.6 µM
same,GI50,SNB-75 CNS,5.79 µM
same,TGI,SNB-75 CNS,22.1 µM
same,GI50,HS 578T breast,2.75 µM
same,TGI,HS 578T breast,12.3 µM
same,GI50,LOX IMVI melanoma,1.45 µM
same,TGI,LOX IMVI melanoma,2.76 µM
same,GI50,EKVX NSCLC,5.15 µM
same,TGI,EKVX NSCLC,19.2 µM
same,GI50,MOLT-4 leukemia,2.38 µM
same,TGI,MOLT-4 leukemia,7.45 µM
same,GI50,OVCAR-5 ovarian,7.03 µM
same,TGI,OVCAR-5 ovarian,20.5 µM
same,GI50,MCF7 breast,0.377 µM
same,TGI,MCF7 breast,2.58 µM
same,GI50,CAKI-1 renal,3.84 µM
same,TGI,CAKI-1 renal,15 µM
same,GI50,NCI-H522 lung,4.12 µM
same,TGI,NCI-H522 lung,16.2 µM
same,GI50,SN12C renal,1.97 µM
same,TGI,SN12C renal,4.77 µM
same,GI50,UACC-62 melanoma,2.21 µM
same,TGI,UACC-62 melanoma,4.97 µM
same,GI50,SK-MEL-28 melanoma,1.86 µM
same,TGI,SK-MEL-28 melanoma,3.73 µM
same,GI50,SF-539 CNS,1.67 µM
same,TGI,SF-539 CNS,3.1 µM
same,GI50,T-47D breast,1.39 µM
same,TGI,T-47D breast,4.01 µM
same,GI50,HOP-62 NSCLC,6.7 µM
same,TGI,HOP-62 NSCLC,20.7 µM
same,GI50,NCI-H226 lung,10.3 µM
same,TGI,NCI-H226 lung,23.6 µM
same,GI50,A498 renal,7.14 µM
same,TGI,A498 renal,20.2 µM
same,GI50,786-0 renal,1.68 µM
same,TGI,786-0 renal,3.1 µM
same,GI50,M14 melanoma,1.81 µM
same,TGI,M14 melanoma,3.56 µM
same,GI50,UACC-257 melanoma,2.1 µM
same,TGI,UACC-257 melanoma,5.05 µM
same,GI50,ACHN renal,3.17 µM
same,TGI,ACHN renal,10.4 µM
same,GI50,CCRF-CEM leukemia,2.62 µM
same,TGI,CCRF-CEM leukemia,> 100 µM
same,GI50,MALME-3M melanoma,1.77 µM
same,TGI,MALME-3M melanoma,3.44 µM
same,GI50,COLO 205 colon,1.88 µM
same,TGI,COLO 205 colon,3.54 µM
same,GI50,SK-MEL-2 melanoma,2.09 µM
same,TGI,SK-MEL-2 melanoma,4.79 µM
same,GI50,DU-145 prostate,8.29 µM
same,TGI,DU-145 prostate,23.4 µM
same,GI50,RXF 393 renal,1.8 µM
same,TGI,RXF 393 renal,3.85 µM
same,GI50,OVCAR-4 ovarian,4.6 µM
same,TGI,OVCAR-4 ovarian,18.5 µM
same,GI50,MDA-MB-435,2.11 µM
same,TGI,MDA-MB-435,4.71 µM
same,GI50,MDA-MB-231 breast,1.89 µM
same,TGI,MDA-MB-231 breast,3.76 µM
